Data: US4452778A, “Synergistic antibacterial compositions and method of treatment of infections caused by multiple antibiotic-resistant organisms” (Eli Lilly and Company, priority 1981, dated 1984)
Converted amounts (≈) assume the structure as drawn. Read-outs that look alike come from different tables or passages of the source.

What was measured:
[1] = system: Serratia marcescens; assay: Checkerboard broth dilution synergy study (mic); format: cell-based; conditions: for MIC: Serratia marcescens, read-out: mic, drug alone
[2] = system: Proteus vulgaris; assay: Checkerboard broth dilution synergy study (mic); format: cell-based; conditions: Table II; for MIC: Proteus vulgaris, read-out: mic, drug alone
[3] = system: Pseudomonas aeruginosa; assay: Checkerboard broth dilution synergy study (mic); format: cell-based; conditions: for MIC: Pseudomonas aeruginosa, read-out: mic, drug alone
[4] = system: Proteus mirabilis; assay: Checkerboard broth dilution synergy study (mic); format: cell-based; conditions: Table II, strain Allen
[5] = system: Pseudomonas maltophilia; assay: Checkerboard broth dilution synergy study (mic); format: cell-based; conditions: for MIC: Stenotrophomonas maltophilia, read-out: mic, drug alone
[6] = system: E. cloacae; assay: Checkerboard broth dilution synergy study (mic); format: cell-based; conditions: for MIC: Enterobacter cloacae, read-out: mic, drug alone
[7] = clinical; conditions: in vivo, iv, mean serum concentration
[8] = system: Pseudomonas pseudomallei; assay: microbe, parasite or virus in culture; format: cell-based
[9] = system: Proteus rettgeri; assay: Checkerboard broth dilution synergy study (mic); format: cell-based; conditions: for MIC: Providencia rettgeri, read-out: mic, drug alone
[10] = system: Acinetobacter sp.; assay: Checkerboard broth dilution synergy study (mic); format: cell-based; conditions: for MIC: Acinetobacter, read-out: mic, drug alone
[11] = system: Klebsiella pneumoniae; assay: Checkerboard broth dilution synergy study (mic); format: cell-based; conditions: for MIC: Klebsiella pneumoniae, read-out: mic, drug alone

## COC1(NC(=O)C(C(=O)O)c2ccc(O)cc2)C(=O)N2C(C(=O)O)=C(CSc3nnnn3C)COC21 (stereo not drawn) [1-oxa compound I, moxalactam]
[1]; Table II, strain 100
  MIC: 0.25 µg/mL
  mic of each drug in combination I + P: 0.12 µg/mL
  mic of each drug in combination I + T: 0.12 µg/mL
[1]; Table II, strain 302-2
  MIC: 1 µg/mL
  mic of each drug in combination I + P: 0.12 µg/mL
  mic of each drug in combination I + T: 0.12 µg/mL
[1]; Table II, strain 796
  MIC: 8 µg/mL
  mic of each drug in combination I + P: 2 µg/mL
  mic of each drug in combination I + T: 2 µg/mL
[1]; Table II, strain 14142
  MIC: 1 µg/mL
  mic of each drug in combination I + P: 0.12 µg/mL
  mic of each drug in combination I + T: 0.25 µg/mL
[1]; Table II, strain Townsend
  MIC: 4 µg/mL
  mic of each drug in combination I + P: 2 µg/mL
  mic of each drug in combination I + T: 1 µg/mL
[1]; Table III, isolate 463-2
  MIC: 8 µg/mL
  mic of each drug in combination I + A: < 0.06 µg/mL
[1]; Table III, isolate 606
  MIC: 4 µg/mL
  mic of each drug in combination I + A: 0.5 µg/mL
[1]; Table III, isolate 1414
  MIC: 1 µg/mL
  mic of each drug in combination I + A: 0.06 µg/mL
[1]; Table III, isolate B377
  MIC: 8 µg/mL
  mic of each drug in combination I + A: 0.12 µg/mL
[1]; Table III, isolate Ziegler
  MIC: 4 µg/mL
  mic of each drug in combination I + A: 0.06 µg/mL
[2]; strain 363
  MIC: 0.12 µg/mL
  mic of each drug in combination I + T: < 0.12 µg/mL
[2]; strain Shide
  MIC: 0.06 µg/mL
  mic of each drug in combination I + T: < 0.12 µg/mL
[3]; Table II, strain 84
  MIC: 16 µg/mL
  mic of each drug in combination I + P: 4 µg/mL
  mic of each drug in combination I + T: 2 µg/mL
[3]; Table II, strain 366
  MIC: 16 µg/mL
  mic of each drug in combination I + P: 8 µg/mL
  mic of each drug in combination I + T: 0.5 µg/mL
[3]; Table II, strain 424
  MIC: 8 µg/mL
  mic of each drug in combination I + P: 2 µg/mL
  mic of each drug in combination I + T: 2 µg/mL
[3]; Table II, strain 447
  MIC: 32 µg/mL
  mic of each drug in combination I + P: 4 µg/mL
  mic of each drug in combination I + T: < 0.5 µg/mL
[3]; Table II, strain 1484
  MIC: 64 µg/mL
  mic of each drug in combination I + P: 16 µg/mL
  mic of each drug in combination I + T: 4 µg/mL
[3]; Table II, strain Davis
  MIC: > 64 µg/mL
  mic of each drug in combination I + P: 8 µg/mL
  mic of each drug in combination I + T: 2 µg/mL
[3]; Table III, isolate 316-2
  MIC: 8 µg/mL
  mic of each drug in combination I + A: 4 µg/mL
[3]; Table III, isolate 362
  MIC: 32 µg/mL
  mic of each drug in combination I + A: 4 µg/mL
[3]; Table III, isolate 363
  MIC: 32 µg/mL
  mic of each drug in combination I + A: 1 µg/mL
[3]; Table III, isolate 610
  MIC: > 64 µg/mL
  mic of each drug in combination I + A: 0.6 µg/mL
[3]; Table III, isolate Brownlee
  MIC: 32 µg/mL
  mic of each drug in combination I + A: 1 µg/mL
[4]; Proteus mirabilis, read-out: mic, drug alone
  MIC: 0.06 µg/mL
[4]
  mic of each drug in combination I + T: < 0.12 µg/mL
[5]; Table II, strain 10
  MIC: 32 µg/mL
  mic of each drug in combination I + T: 4 µg/mL
[5]; Table II, strain 11
  MIC: 4 µg/mL
  mic of each drug in combination I + T: 0.5 µg/mL
[5]; Table II, strain 505
  MIC: 8 µg/mL
  mic of each drug in combination I + T: 0.6 µg/mL
[5]; Table III, isolate 10
  MIC: 32 µg/mL
  mic of each drug in combination I + A: 8 µg/mL
[5]; Table III, isolate 505
  MIC: 8 µg/mL
  mic of each drug in combination I + A: 2 µg/mL
[6]; Table II, strain 1246
  MIC: 0.25 µg/mL
  mic of each drug in combination I + T: < 0.12 µg/mL
[6]; Table II, strain 1253
  MIC: 4 µg/mL
  mic of each drug in combination I + P: 2 µg/mL
  mic of each drug in combination I + T: 0.25 µg/mL
[6]; Table II, strain 1415
  MIC: 0.12 µg/mL
  mic of each drug in combination I + T: 0.12 µg/mL
[6]; Table II, strain B293
  MIC: 0.5 µg/mL
  mic of each drug in combination I + P: 0.25 µg/mL
  mic of each drug in combination I + T: 0.12 µg/mL
[6]; Table III, isolate 228
  MIC: 0.12 µg/mL
  mic of each drug in combination I + A: < 0.06 µg/mL
[6]; Table III, isolate 1253
  MIC: 4 µg/mL
  mic of each drug in combination I + A: < 0.06 µg/mL
[6]; Table III, isolate 1296
  MIC: 0.25 µg/mL
  mic of each drug in combination I + A: 0.06 µg/mL
[6]; Table III, isolate 1415
  MIC: 0.12 µg/mL
  mic of each drug in combination I + A: 0.12 µg/mL
[6]; Table III, isolate McQuinn
  MIC: 0.25 µg/mL
  mic of each drug in combination I + A: 0.12 µg/mL
[7]
  concentration at 11 h: 1200 ng/mL
[8]; Burkholderia pseudomallei, read-out: mic, drug alone
  MIC: 32 µg/mL (≈ 61.5 µM)
[8]; Table III, isolate not named
  mic of each drug in combination I + A: 4 µg/mL
[9]; Table II, strain 65
  MIC: 0.25 µg/mL
  mic of each drug in combination I + T: 0.12 µg/mL
[9]; Table III, isolate 53
  MIC: 0.25 µg/mL
  mic of each drug in combination I + A: < 0.06 µg/mL
[9]; Table III, isolate 136-1
  MIC: 0.25 µg/mL
  mic of each drug in combination I + A: 0.12 µg/mL
[9]; Table III, isolate 768
  MIC: 0.5 µg/mL
  mic of each drug in combination I + A: < 0.06 µg/mL
[9]; Table III, isolate 997
  MIC: 0.4 µg/mL
  mic of each drug in combination I + A: < 0.06 µg/mL
[9]; Table III, isolate 1422
  MIC: 2 µg/mL
  mic of each drug in combination I + A: 2 µg/mL
[10]; Table II, strain 28-1
  MIC: 16 µg/mL
  mic of each drug in combination I + T: 0.6 µg/mL
[10]; Table II, strain 28-2
  MIC: 16 µg/mL
  mic of each drug in combination I + T: 2 µg/mL
[10]; Table II, strain 106
  MIC: 8 µg/mL
  mic of each drug in combination I + T: 0.6 µg/mL
[10]; Table II, strain 107
  MIC: 32 µg/mL
  mic of each drug in combination I + T: 2 µg/mL
[10]; Table II, strain 109
  MIC: 16 µg/mL
  mic of each drug in combination I + T: 2 µg/mL
[10]; Table III, isolate 28-1
  MIC: 16 µg/mL
  mic of each drug in combination I + A: 2 µg/mL
[10]; Table III, isolate 28-2
  MIC: 16 µg/mL
  mic of each drug in combination I + A: < 0.06 µg/mL
[10]; Table III, isolate 106
  MIC: 8 µg/mL
  mic of each drug in combination I + A: < 0.06 µg/mL
[10]; Table III, isolate 107
  MIC: 32 µg/mL
  mic of each drug in combination I + A: 8 µg/mL
[10]; Table III, isolate 109
  MIC: 16 µg/mL
  mic of each drug in combination I + A: 8 µg/mL
[11]; Table II, strain 130
  MIC: 0.5 µg/mL
  mic of each drug in combination I + T: < 0.012 µg/mL
[11]; Table II, strain 214-1
  MIC: 2 µg/mL
  mic of each drug in combination I + P: 0.5 µg/mL
  mic of each drug in combination I + T: 0.012 µg/mL
[11]; Table II, strain 463
  MIC: 2 µg/mL
  mic of each drug in combination I + P: 2 µg/mL
  mic of each drug in combination I + T: 0.012 µg/mL
[11]; Table II, strain 512
  MIC: 0.5 µg/mL
  mic of each drug in combination I + P: 0.5 µg/mL
  mic of each drug in combination I + T: 0.012 µg/mL
[11]; Table II, strain 933
  MIC: 0.25 µg/mL
  mic of each drug in combination I + T: < 0.012 µg/mL
[11]; Table II, strain 1204-2
  MIC: 2 µg/mL
  mic of each drug in combination I + P: 0.5 µg/mL
  mic of each drug in combination I + T: 0.012 µg/mL
[11]; Table III, isolate 130
  MIC: 0.5 µg/mL
  mic of each drug in combination I + A: 0.5 µg/mL
[11]; Table III, isolate 214-1
  MIC: 2 µg/mL
  mic of each drug in combination I + A: < 0.06 µg/mL
[11]; Table III, isolate 463
  MIC: 2 µg/mL
  mic of each drug in combination I + A: 2 µg/mL
[11]; Table III, isolate 938
  MIC: 0.25 µg/mL
  mic of each drug in combination I + A: < 0.06 µg/mL
[11]; Table III, isolate 1231
  MIC: 0.5 µg/mL
  mic of each drug in combination I + A: 0.06 µg/mL
